{
  "source": "patent US11312676B2",
  "about": "“Small molecule stimulators of steroid receptor coactivator proteins and their use in the treatment of cancer” (BAYLOR COLLEGE OF MEDICINE, priority 2014, dated 2022)",
  "type_in_all_cases": "cell-based",
  "key": {"[1]": {"target": "T1, SRC-3 (Homo sapiens, UniProt Q9Y6Q9)", "T1 construct": "expressed in transfected cells; host or cells: HeLa", "T1 sequence (Q9Y6Q9 whole entry, the tested form may be a part)": "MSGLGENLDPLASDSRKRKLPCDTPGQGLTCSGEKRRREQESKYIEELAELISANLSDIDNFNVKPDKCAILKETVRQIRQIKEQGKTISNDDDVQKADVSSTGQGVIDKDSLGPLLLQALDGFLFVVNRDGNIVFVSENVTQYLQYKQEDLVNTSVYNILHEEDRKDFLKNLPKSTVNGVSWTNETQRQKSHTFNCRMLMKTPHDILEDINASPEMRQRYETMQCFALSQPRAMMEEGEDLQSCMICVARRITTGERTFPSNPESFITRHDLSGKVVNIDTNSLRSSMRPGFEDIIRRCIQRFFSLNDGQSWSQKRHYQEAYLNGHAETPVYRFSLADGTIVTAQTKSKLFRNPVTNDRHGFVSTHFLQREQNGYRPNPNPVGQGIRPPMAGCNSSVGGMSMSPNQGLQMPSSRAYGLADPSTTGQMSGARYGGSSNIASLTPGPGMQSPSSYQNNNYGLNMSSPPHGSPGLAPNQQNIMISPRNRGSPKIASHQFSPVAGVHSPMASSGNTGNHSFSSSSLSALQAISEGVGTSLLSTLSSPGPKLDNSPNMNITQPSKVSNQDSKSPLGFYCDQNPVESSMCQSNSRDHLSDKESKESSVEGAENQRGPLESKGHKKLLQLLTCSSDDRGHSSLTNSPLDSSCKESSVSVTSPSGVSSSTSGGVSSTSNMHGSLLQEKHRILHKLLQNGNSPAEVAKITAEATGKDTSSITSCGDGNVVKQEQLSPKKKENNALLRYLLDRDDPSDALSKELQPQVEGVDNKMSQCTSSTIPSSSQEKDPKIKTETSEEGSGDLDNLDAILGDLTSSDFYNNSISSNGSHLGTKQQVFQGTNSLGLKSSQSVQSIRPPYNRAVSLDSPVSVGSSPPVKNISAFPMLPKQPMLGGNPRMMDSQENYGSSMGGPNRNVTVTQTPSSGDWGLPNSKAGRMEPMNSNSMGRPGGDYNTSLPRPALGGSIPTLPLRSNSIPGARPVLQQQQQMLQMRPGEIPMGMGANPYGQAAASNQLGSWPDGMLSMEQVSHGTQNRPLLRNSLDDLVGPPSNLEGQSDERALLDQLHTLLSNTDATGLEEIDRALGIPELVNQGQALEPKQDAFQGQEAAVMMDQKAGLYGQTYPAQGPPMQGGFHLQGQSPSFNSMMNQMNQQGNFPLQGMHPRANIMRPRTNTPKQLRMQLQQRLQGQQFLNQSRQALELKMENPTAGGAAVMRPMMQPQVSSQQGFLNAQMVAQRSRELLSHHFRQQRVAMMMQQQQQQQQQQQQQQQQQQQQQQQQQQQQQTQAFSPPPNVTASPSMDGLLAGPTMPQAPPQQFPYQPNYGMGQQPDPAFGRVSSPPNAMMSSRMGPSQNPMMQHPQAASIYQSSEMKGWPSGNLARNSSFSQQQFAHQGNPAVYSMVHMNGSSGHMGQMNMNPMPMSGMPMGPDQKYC", "assay": "Gal4 luciferase reporter assay (pBIND-SRC-3 + pG5-LUC) in HeLa cells", "settings": "for effect on activation of SRC-3 by MCB-613: co-treatment with MCB-613, 24 hours; for intrinsic transcriptional activity of SRC-3: 24 hours, additional paraptosis agents", "method": "(§1) The constructs expressing the Gal4 responsive luciferase reporter (pG5-luc), Gal4 DBD fusion with SRC-1, […] (pBIND-SRC-1/-2/-3), MMP2 or MMP13 promoter driven luciferase reporter (MMP2-luc, MMP13-luc) were prepared. Twenty-four hours before transfection, HeLa cells were plated in 24-well dishes. The indicated expression plasmids were transfected into cells using Lipofectamine 2000 according to the manufacturer's instructions.\n(§2) After various compound treatments, cells were lysed in luciferase lysis buffer and assayed for luciferase activity using the ONE-Glo luciferase assay system (Promega, Madison, Wis.). All luciferase activities were normalized to protein concentration determined by Bradford assay (Bio-Rad, Hercules, Calif.).\nHeLa cells were transfected with a Gal4 responsive luciferase reporter (pG5-luc) and a construct encoding SRC-1, SRC-2 or SRC-3 fused with the DNA binding domain of Gal4 (pBIND-SRC-1, pBIND-SRC-2 or pBIND-SRC-3) were treated with the indicated compounds."}, "[2]": {"target": "SRC-1 (Homo sapiens, UniProt Q15788)", "sequence (Q15788 whole entry, the tested form may be a part)": "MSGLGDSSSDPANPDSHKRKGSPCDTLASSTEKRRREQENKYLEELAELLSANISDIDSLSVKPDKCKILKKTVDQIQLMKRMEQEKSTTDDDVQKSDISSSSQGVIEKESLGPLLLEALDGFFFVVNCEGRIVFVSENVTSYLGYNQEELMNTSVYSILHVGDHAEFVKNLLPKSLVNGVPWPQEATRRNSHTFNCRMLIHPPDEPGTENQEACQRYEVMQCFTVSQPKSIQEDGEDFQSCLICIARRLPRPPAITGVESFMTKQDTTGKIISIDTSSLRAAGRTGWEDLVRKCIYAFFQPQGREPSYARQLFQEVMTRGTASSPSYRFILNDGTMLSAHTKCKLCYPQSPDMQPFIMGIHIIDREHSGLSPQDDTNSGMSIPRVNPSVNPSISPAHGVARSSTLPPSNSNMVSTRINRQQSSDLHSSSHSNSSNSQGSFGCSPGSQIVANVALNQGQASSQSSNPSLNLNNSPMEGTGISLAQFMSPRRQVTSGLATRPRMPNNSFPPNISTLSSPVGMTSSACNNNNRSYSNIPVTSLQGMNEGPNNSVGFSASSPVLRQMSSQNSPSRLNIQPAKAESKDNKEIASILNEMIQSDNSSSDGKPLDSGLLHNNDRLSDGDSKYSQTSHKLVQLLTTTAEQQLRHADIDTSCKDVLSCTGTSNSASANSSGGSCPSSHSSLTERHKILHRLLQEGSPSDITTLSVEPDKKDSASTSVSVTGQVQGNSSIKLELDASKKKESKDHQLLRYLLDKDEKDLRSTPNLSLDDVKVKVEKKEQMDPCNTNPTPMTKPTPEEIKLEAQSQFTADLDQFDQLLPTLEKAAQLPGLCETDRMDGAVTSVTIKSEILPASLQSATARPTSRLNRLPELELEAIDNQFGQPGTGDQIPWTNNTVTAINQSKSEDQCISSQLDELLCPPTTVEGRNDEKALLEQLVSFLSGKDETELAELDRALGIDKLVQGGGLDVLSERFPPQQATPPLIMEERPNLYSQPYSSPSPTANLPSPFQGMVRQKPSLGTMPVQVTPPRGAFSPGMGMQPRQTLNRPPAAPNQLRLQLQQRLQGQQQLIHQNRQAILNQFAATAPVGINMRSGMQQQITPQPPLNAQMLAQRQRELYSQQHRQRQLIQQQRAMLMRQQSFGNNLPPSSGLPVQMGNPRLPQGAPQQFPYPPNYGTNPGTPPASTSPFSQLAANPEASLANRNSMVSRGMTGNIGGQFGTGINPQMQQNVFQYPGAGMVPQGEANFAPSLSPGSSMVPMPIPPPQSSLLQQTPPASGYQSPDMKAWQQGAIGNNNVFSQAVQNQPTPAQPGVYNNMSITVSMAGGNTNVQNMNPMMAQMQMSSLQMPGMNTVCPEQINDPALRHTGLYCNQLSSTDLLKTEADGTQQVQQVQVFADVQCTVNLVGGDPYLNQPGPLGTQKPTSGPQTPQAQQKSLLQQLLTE", "assay": "Gal4 luciferase reporter assay (pBIND-SRC-1 + pG5-LUC) in HeLa cells", "set-up": "expressed in transfected cells; host or cells: HeLa", "settings": "for intrinsic transcriptional activity of SRC-1: 24 hours, additional paraptosis agents", "method": "as §1, §2"}, "[3]": {"target": "T2, SRC-2 (Homo sapiens, UniProt Q15596)", "T2 construct": "expressed in transfected cells; host or cells: HeLa", "T2 sequence (Q15596 whole entry, the tested form may be a part)": "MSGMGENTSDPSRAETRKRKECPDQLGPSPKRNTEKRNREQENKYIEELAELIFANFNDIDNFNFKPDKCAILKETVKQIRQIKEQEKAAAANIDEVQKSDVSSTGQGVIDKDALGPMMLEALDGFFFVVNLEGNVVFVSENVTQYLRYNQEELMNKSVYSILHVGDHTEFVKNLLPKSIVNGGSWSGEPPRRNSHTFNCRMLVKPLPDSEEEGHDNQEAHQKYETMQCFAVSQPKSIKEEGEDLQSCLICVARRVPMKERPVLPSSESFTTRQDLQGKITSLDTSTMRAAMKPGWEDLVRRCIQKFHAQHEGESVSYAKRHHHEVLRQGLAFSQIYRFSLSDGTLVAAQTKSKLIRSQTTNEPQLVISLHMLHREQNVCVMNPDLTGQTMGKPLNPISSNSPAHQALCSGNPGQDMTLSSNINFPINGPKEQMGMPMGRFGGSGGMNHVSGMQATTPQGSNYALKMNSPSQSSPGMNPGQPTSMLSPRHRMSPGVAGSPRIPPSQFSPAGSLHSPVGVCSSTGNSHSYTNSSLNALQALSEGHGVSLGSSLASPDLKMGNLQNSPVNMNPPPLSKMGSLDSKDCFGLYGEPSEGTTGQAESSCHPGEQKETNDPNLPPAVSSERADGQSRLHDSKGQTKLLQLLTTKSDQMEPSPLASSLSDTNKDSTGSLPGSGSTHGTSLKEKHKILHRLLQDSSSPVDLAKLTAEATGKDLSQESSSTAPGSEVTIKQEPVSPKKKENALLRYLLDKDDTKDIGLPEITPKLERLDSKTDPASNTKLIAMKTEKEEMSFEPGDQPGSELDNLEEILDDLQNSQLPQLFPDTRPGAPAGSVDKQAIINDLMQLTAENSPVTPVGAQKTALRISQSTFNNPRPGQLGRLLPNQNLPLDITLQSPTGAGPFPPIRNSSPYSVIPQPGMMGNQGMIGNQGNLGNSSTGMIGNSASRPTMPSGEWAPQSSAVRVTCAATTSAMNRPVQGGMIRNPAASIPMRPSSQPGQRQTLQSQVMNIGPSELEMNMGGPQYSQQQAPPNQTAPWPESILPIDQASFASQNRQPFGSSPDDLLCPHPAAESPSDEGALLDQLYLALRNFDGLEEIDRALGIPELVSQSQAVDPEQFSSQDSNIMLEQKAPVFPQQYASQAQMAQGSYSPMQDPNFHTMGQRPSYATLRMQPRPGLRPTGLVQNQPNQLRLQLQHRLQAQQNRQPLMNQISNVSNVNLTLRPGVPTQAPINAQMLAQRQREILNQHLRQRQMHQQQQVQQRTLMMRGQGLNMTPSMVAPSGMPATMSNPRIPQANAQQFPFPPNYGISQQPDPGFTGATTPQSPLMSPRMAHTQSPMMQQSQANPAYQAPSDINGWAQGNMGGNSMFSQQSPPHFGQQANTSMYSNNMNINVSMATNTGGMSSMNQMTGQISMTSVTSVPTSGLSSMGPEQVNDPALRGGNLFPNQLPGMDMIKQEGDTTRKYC", "assay": "Gal4 luciferase reporter assay (pBIND-SRC-2 + pG5-LUC) in HeLa cells", "settings": "for intrinsic transcriptional activity of SRC-2: 24 hours, additional paraptosis agents", "method": "as §1, §2"}, "[4]": {"tested_on": "HeLa cells", "assay": "MTS cell viability assay, HeLa cells", "settings": "HeLa cells, co-treatment with MCB-613, 24 hours"}, "[5]": {"tested_on": "HeLa cells", "assay": "Cytoplasmic vacuolization of cancer cells", "settings": "HeLa cells, co-treatment with MCB-613, 24 hours"}, "[6]": {"tested_on": "TM4 Sertoli cells and GBM cancer cells", "assay": "CellTiter-Glo viability, TM4 Sertoli cells versus GBM cell lines R0315 and 4687", "settings": "72 hours, GBM R0315 and 4687 vs TM4 Sertoli", "method": "The effects of SYC-851 (Compound 4-8), SYC-852 (Compound 5-1), SYC-853 (Compound 5-4), and SYC-855 (Compound 7-8) on TM4 Sertoli cells and on GBM cancer cells were determined. Cells were plated as monolayer cultures and treated 24 hours later with the indicated concentration of compounds. After 72 hours, cells were harvested and assayed for viability using a CellTiter-Glo assay […]. The results for TM4 Setoli cells and for pediatric glioblastoma multiforme cell lines R0315 and 4687 and are shown in FIGS. 18A, 18B, and 18C, respectively."}, "[7]": {"tested_on": "HeLa cells", "assay": "Western blot of stress, UPR, autophagy and apoptosis markers in HeLa cells", "settings": "co-treatment with MCB-613, 24 hours", "method": "For Western blotting, cells were harvested and lysed in lysis buffer (50 mM Tris, pH 8.0, 150 mM NaCl, 10% glycerol, 0.5% NP40, protease and phosphatase inhibitor) and then centrifuged for 15 min at 14000 rpm at 4° C. After total cellular protein concentration was determined by Bradford analysis (Bio-Rad, Hercules, Calif.), protein lysates were loaded onto and resolved by sodium dodecyl sulfate-polyacrylamide gel electrophoresis (SDS-PAGE) and transferred to PVDF membranes (BioRad) which were blocked and incubated with indicated antibodies. For immunoprecipitation, 10 μg of plasmid encoding FLAG-SRC-3 was transfected into HeLa cells with 90% confluence in one 10 cm plate with lipofectamine 2000 (Invitrogen). Twenty-four hours after transfection, the cells were treated with MCB-613 for one hour and lysed with lysis buffer (25 mM Tris-Cl pH7.5, 150 mM NaCl, 5% glycerol, 1 mM EDTA, 1% Triton X-100, protease and phosphatase inhibitor) at 4° C. After a 30-second sonication, the lysate was cleared by centrifugation at 14000 rpm at 4° C. for 15 minutes and was incubated with anti-Flag-M2 agarose affinity gel (Sigma) for four hours. The agarose gel was washed four times with washing buffer (25 mM Tris pH 8.0, 150 mM NaCl, 1 mM EDTA, 1% Triton X-100) and resuspended with SDS loading buffer for Western blotting."}, "[8]": {"settings": "co-treatment with MCB-613, 24 hours"}},
  "note": "Peptide text beside a SMILES is read from it. * marks the point of attachment. Cbz = O=C(OCc1ccccc1)*; CH2F = FC*",
  "data": [
    {"smiles": "Cn1cnc(N)c2ncnc1-2", "note": "[Compound 3-MA, 3-methyladenine]", "values": [
      {"measurement": "effect on activation of SRC-3 by MCB-613", "setting": "[1]", "value": "did not inhibit"}
    ]},
    {"smiles": "CCCCC/C=C/C=C1/C(=O)C=C[C@@H]1C/C=C\\CCCC(=O)O", "note": "[Compound 15d-PGJ2, 15-deoxy-Δ^12,14-prostaglandin J2]", "values": [
      {"measurement": "intrinsic transcriptional activity of SRC-1", "setting": "[2]", "value": "robustly enhance"},
      {"measurement": "intrinsic transcriptional activity of SRC-3", "setting": "[1]", "value": "robustly enhance"},
      {"measurement": "intrinsic transcriptional activity of SRC-2", "setting": "[3]", "value": "robustly enhance"}
    ]},
    {"smiles": "CC(C)C[C@@H](C=O)NC(=O)[C@H](CC(C)C)NC(=O)[C@H](CC(C)C)NC(=O)OCc1ccccc1", "note": "[MG132] (Cbz-Leu-Leu-Leu-aldehyde)", "values": [
      {"measurement": "intrinsic transcriptional activity of SRC-1", "setting": "[2]", "value": "robustly enhance"},
      {"measurement": "intrinsic transcriptional activity of SRC-3", "setting": "[1]", "value": "robustly enhance"},
      {"measurement": "intrinsic transcriptional activity of SRC-2", "setting": "[3]", "value": "robustly enhance"}
    ]},
    {"smiles": "CC(=O)N[C@@H](CS)C(=O)O", "note": "[N-Acetyl cysteine]", "values": [
      {"measurement": "effect on activation of SRC-1 by MCB-613", "setting": "[2]; [8]", "value": "abrogate"},
      {"measurement": "effect on activation of SRC-3 by MCB-613", "setting": "[1]", "value": "abrogate"},
      {"measurement": "effect on activation of SRC-2 by MCB-613", "setting": "[3]; [8]", "value": "abrogate"},
      {"measurement": "effect on cell death caused by MCB-613", "setting": "[4]", "value": "protected cells from MCB-613 mediated cytotoxicity"},
      {"measurement": "effect on vacuolization induced by MCB-613", "setting": "[5]", "value": "blocked"}
    ]},
    {"smiles": "CO[C@@H](C(=O)N1Cc2n[nH]c(NC(=O)c3ccc(N4CCN(C)CC4)cc3)c2C1)c1ccccc1", "note": "[PHA 739358]", "values": [
      {"measurement": "effect on activation of SRC-3 by MCB-613", "setting": "[1]", "value": "significantly inhibited"}
    ]},
    {"smiles": "O=C1C(=Cc2cccnc2)COCC1=Cc1cccnc1", "note": "[SYC-851]", "values": [
      {"measurement": "toxicity to cancer cells compared with non-cancer cells", "setting": "[6]", "value": "more toxicity to cancer cells than to non-cancer cells"}
    ]},
    {"smiles": "CC(C)N1CC(=Cc2cccnc2)C(=O)C(=Cc2cccnc2)C1", "note": "[SYC-855]", "values": [
      {"measurement": "SRC-3 intrinsic transcriptional activity (luciferase)", "setting": "[1]; Example 6", "value": "high intrinsic transcriptional activity"},
      {"measurement": "toxicity to cancer cells compared with non-cancer cells", "setting": "[6]", "value": "more toxicity to cancer cells than to non-cancer cells"}
    ]},
    {"smiles": "C[C@]12CC[C@H](O)C[C@H]1CC[C@@H]1[C@@H]2CC[C@]2(C)[C@@H](c3ccc(=O)oc3)CC[C@]12O", "note": "[bufalin, reference compound]", "values": [
      {"measurement": "effect on vacuolization induced by MCB-613", "setting": "[5]", "value": "effectively inhibited"},
      {"measurement": "effect on induction of ER stress (ATF4) by MCB-613", "setting": "[7]", "value": "completely reversed"}
    ]},
    {"smiles": "CCN(CC)CCCC(C)Nc1ccnc2cc(Cl)ccc12", "note": "(stereo not shown) [chloroquine]", "values": [
      {"measurement": "effect on activation of SRC-3 by MCB-613", "setting": "[1]", "value": "did not inhibit"}
    ]},
    {"smiles": "COc1cc(/C=C/C(=O)CC(=O)/C=C/c2ccc(O)c(OC)c2)ccc1O", "note": "[curcumin]", "values": [
      {"measurement": "intrinsic transcriptional activity of SRC-1", "setting": "[2]", "value": "robustly enhance"},
      {"measurement": "intrinsic transcriptional activity of SRC-3", "setting": "[1]", "value": "robustly enhance"},
      {"measurement": "intrinsic transcriptional activity of SRC-2", "setting": "[3]", "value": "robustly enhance"}
    ]},
    {"smiles": "C[C@@H]1C[C@@H]([C@H](O)CC2CC(=O)NC(=O)C2)C(=O)[C@@H](C)C1", "note": "[cycloheximide]", "values": [
      {"measurement": "effect on cell death caused by MCB-613", "setting": "[4]", "value": "protected cells from MCB-613 mediated cytotoxicity"},
      {"measurement": "effect on vacuolization induced by MCB-613", "setting": "[5]", "value": "blocked"}
    ]},
    {"smiles": "COC(=O)C[C@H](NC(=O)[C@H](C)NC(=O)[C@@H](NC(=O)OCc1ccccc1)C(C)C)C(=O)CF", "note": "[z-VAD-fmk] (Cbz-Val-Ala-Asp(OMe)-CH2F)", "values": [
      {"measurement": "effect on activation of SRC-3 by MCB-613", "setting": "[1]", "value": "did not inhibit"}
    ]}
  ]
}
